Measured values as given in patent US8241681B2, “Synergistic mixtures of bisabolol and ginger extract” (Symrise AG, priority 2005, dated 2012).

Tested on: erythema raised by 24-hour occlusive treatment with SDS (sodium dodecyl sulfate), inside under-arm skin
Assay: SDS inflammation test (SDS irritation study), reduction in reddening of the skin
Type: in vivo, human
Conditions: after 3 days
Experimental: The SDS inflammation test was used as the test model. The study was conducted on the inside under-arm of 20 subjects (9 female, 11 male, age: 24-62 years). The reddening of the skin was recorded with a Minolta-Chromameter CR 300 via the a* value of the La′b′ colour system, which describes the position on the red-green axis. The measurements were taken before and 4-6 hours after raising the erythema by 24-hour occlusive treatment with SDS (sodium dodecyl sulfate). The skin was then treated with the test formulation in question 2 times daily for 3 days. 4-6 h after the last application on day 3, the reddening of the skin was determined and the reduction in reddening was calculated from this.
For the study, a defined amount of the active compound combination C according to the invention was incorporated into an O/W emulsion. For comparison purposes, the comparison active compounds A and B were incorporated into separate O/W emulsions.
Extrapon Ginger (Symrise) comprising 1% of ginger CO2 extract, characterized by 25-33% in total of piquant substances with gingerols, shogaols (<3%) and zingerone (<0.5%) and 38-46% of steam-volatile constituents was employed as comparison active compound A.
Calculation of the synergy index (SI) value according to Kull for the reduction in reddening in the SDS inflammation test for a mixture of bisabolol and ginger extract after a treatment time of 3 days: […]

CC(C)=CCC[C@](C)(O)[C@@H]1CC=C(C)CC1 [Formulation with active compound B, -(-Alpha-)-Bisabolol, natural]
Reduction in reddening relative to the start conditions (a* value) (O/W emulsion applied 2 times daily, 20 subjects, Minolta-Chromameter CR 300, Example 11): 2.42
Placebo-corrected reduction in reddening (a* value) (reduction in reddening active compound minus reduction in reddening placebo, Example 11): 1.02
